Test results reported in patent US20180284095A1, “BIOMARKERS ASSOCIATED WITH LSD1 INHIBITORS AND USES THEREOF” (Oryzon Genomics, S.A., priority 2015, published 2018).

Legend:
[1] = system: S100A8; assay: Microarray gene expression, hippocampus of SAMP8 mice (Example 3); format: in vivo, mouse; conditions: for Hybridization signal sample_Cy5 S100A8 / log2 (sample/control) S100A8: SAMP8 female pool
Protocol: (§1) Total RNA was extracted from samples using the RNeasy extraction kit (Qiagen). The quality and concentration of the RNA was analyzed using the Agilent 2100 bioanalyzer and NanoDrop™ ND-1000 (Thermo Scientific). Samples with RNA integrity number (RIN)<6.0 were discarded. Total RNA (0.5 μg) amplification and labelling with Cy3 or Cy5 was carried out using the Eberwein mRNA amplification procedure (Van Gelder et al, Proc Natl Acad Sci USA 1990, 87:1663-1667) employing the MessageAmp™ aRNA amplification kit from Ambion (Applied Biosystems) following the manufacturer's instructions with minor modifications. As hybridization controls, plant mRNAs were transcribed from a plasmid containing the Zea mays Xet (xyloglucan endo-transglycosylase) cDNA and from a plasmid containing the Zea mays Zmmyb42 cDNA, independently prepared Cy3 and Cy5 labelled aRNA from these two RNAs using the Eberwein mRNA amplification procedure (as disclosed in Cerdà et al, Gen Comp Endocrinol 2008, 156:470-481).
(§2) The Cy3- and Cy5-labelled cRNAs and spikes were combined and hybridized to the microarray described in Example 2.6 for 17 h at 60° C. using Agilent's gaskets G2534-60002, G2534A hybridization chambers and DNA Hybridization Oven G2545A, according to the manufacturer's instructions. More specifically, equal amounts of Cy3 and Cy5 labeled Xet aRNA as well as equal amounts of Cy3 and Cy5 labeled Zmmyb42 aRNA were spiked into each mixture hybridized to the array. Arrays were washed and raw data were obtained using Agilent's DNA Microarray Scanner G2505B and Feature Extraction software (v10.1). The raw fluorescence intensity data were processed using applicant's proprietary software, and consists in the following operations:
(§3) Data normalization was carried out by an improved version of the nonlinear Q-splines normalization method (Workman et al., Genome Biol 2002, 3(9):research0048.1-0048.16). Normalization results were presented graphically as MA plots, as first described by Dudoit et al (Dudoit et al, Statistica Sinica, 2002, 12:111-139). Each point corresponds to a probe of the DNA array. M values (vertical axis) are the log-differential expression ratios. A values (horizontal axis) are the log-intensities of the spots. M and A are calculated from the Cy5 and Cy3 intensity values as of each spot. The DNA Array data is normalized using an improved version of non-linear Q-Splines normalization described by Workman et al., Genome Biol 2002, 3(9):research0048.1-0048.16. This process is useful to correct the deviation of the M values from the statistical assumption that most of the spots have M=0 in MA plots. The method allows the adjustment of all M values to form a cloud centered at M=0 in all intensity ranges. The data used to calculate the normalization fitting curve is the totality of the raw measurement dataset, excluding the signals for the probes for the spiked-in plant RNA controls and negative controls. In order to be able to normalize properly the data among all the experiments, the probe-set must include an important group of genes that should have no change (M=0) in the experiment. The normalization function is then applied to all the data, including controls.
(§4) Normalized and log-transformed data were used to calculate log 2 (sample/control) and Fold Change (FC) values. No background subtraction was applied to the signal intensity values during data processing, permitting robust selection of differentially expressed genes with low expression levels at the cost of potential sub-estimation of change when intensity levels are close to the array background level.
(§5) The technical replicate analysis is the statistical processing of the microarray data. Replicates were calculated to measure oligo replicates on an array or between replicates of experiments on different arrays (i.e. hybridization of the same sample). […]

[2] = system: S100A9; assay: as above; format: in vivo, mouse; conditions: for Hybridization signal sample_Cy5 S100A9 / log2 (sample/control) S100A9: SAMP8 female pool
Protocol: as §1, §2, §3, §4, §5

[3] = SAMP8 females, treatment vs vehicle

## (−) 5-((((trans)-2-(4-(benzyloxy)phenyl)cyclopropyl)amino)methyl)-1,3,4-oxadiazol-2-amine [Compound 1]
[1]; HD 3.2 mg/kg/day
  Hybridization signal sample_Cy5 S100A8: 77.0786
[1]; HD 3.2 mg/kg/day vs SAMP8 VEH
  log2 (sample/control) S100A8: −0.1813
[1]; LD 0.96 mg/kg/day
  Hybridization signal sample_Cy5 S100A8: 70.7119
[1]; LD 0.96 mg/kg/day vs SAMP8 VEH
  log2 (sample/control) S100A8: −0.2255
[1]; [3]
  S100A8 expression (microarray): down-regulated
[2]; HD 3.2 mg/kg/day
  Hybridization signal sample_Cy5 S100A9: 73.2282
[2]; HD 3.2 mg/kg/day vs SAMP8 VEH
  log2 (sample/control) S100A9: −0.7647
[2]; LD 0.96 mg/kg/day
  Hybridization signal sample_Cy5 S100A9: 66.4843
[2]; LD 0.96 mg/kg/day vs SAMP8 VEH
  log2 (sample/control) S100A9: −0.8381
[2]; [3]
  S100A9 expression (microarray): down-regulated
